The numbers were not newly measured in US11564958B2, “Compositions and methods of treatment of Ehlers-Danlos syndromes” (RESOLYS BIO, INC., priority 2017, dated 2023), which cites them from elsewhere.

This series concerns rheumatoid arthritis. The settings on record: reported in U.S. Pat. No. 4,704,273.

Molecules are shown by their SMILES.

As to `NCCc1c[nH]cn1` [histamine, 4-(2-aminoethyl)-imidazole], the “usefulness in alleviating symptoms of rheumatoid arthritis” value was “not be useful”.
